Assay results reported in patent US20230263907A1, “PREPARATION OF SOLID CYCLODEXTRIN COMPLEXES FOR OPHTHALMIC ACTIVE PHARMACEUTICAL INGREDIENT DELIVERY” (OCULIS SA, priority 2020, published 2023).
≈ marks a conversion by molar mass, not a printed value. Marks after values point to notes of the source that are not given here.

Key:
EGFR = EGFR (Homo sapiens, UniProt P00533); settings: vendor data; cited from earlier work
[1] = Dissolution test of eye drop formulations in water; assay type: physicochemical; settings: formulation AF1, 450 times dilution in water, maximum at about 10 minutes
Experimental: In order to keep high concentrations of dissolved kinase inhibitors in the aqueous tear fluid the dissolution of the kinase inhibitor must proceed very quickly upon media dilution. The test formulation was above DF3 and the reference formulation was AF1 comprising acrizanib (Table 4 below). A dissolution test was performed by direct adding of a formulation aliquot into defined volume of water under constant stirring speed. The formulation/water ratio (final dilution) selection was based on the quantification limit of the used HPLC method and on the acrizanib solubility. The final dilution of 450 times was selected. At certain time after adding the formulation to water a sample of about 1 ml was taken from a stirring media, filtered through 0.45 µm filter and transferred to an HPLC vial for analysis.

VEGFR2 [2] = target: T1, VEGFR2 (Homo sapiens, UniProt P35968); assay: VEGFR2 IC50 values obtained from Selleckchem, Tocris Bioscience and TargetMol; assay type: biochemical; settings: ratio of vendor IC50 values
[3] = target: VEGFR2 (C-terminal fragment, amino acids D807-V1356) (Homo sapiens, UniProt P35968)
[4] = 7 days
[5] = target: T2, EGFR (C-terminal fragment, amino acids H672-A1210) (Homo sapiens, UniProt P00533); assay: PamChip tyrosine kinase peptide array assay, recombinant EGFR; assay type: biochemical
T2 construct: EGFR (C-terminal fragment, amino acids H672-A1210); purchased Proqinase (Freiburg Germany)

VEGFR2 [6] = assay: PamChip kinase activity profiling in cornea tissue lysates; set-up: VEGFR2 inhibition, Cornea: dose or concentration left out as unconfirmed; settings: rabbit cornea lysate
VEGFR2 [7] = assay: PamChip kinase activity profiling in retina tissue lysates; set-up: VEGFR2 inhibition, Retina: dose or concentration left out as unconfirmed; settings: rabbit retina lysate
[8] = Solid and dissolved drug fraction and particle size of eye drop microsuspensions; assay type: physicochemical
[9] = Experimental aqueous solubility; assay type: physicochemical
Text: Further improvement of the complexation efficacy is obtained by addition of EDTA and polymers like tyloxapol.

VEGFR2 [10] = target: T1, VEGFR2; settings: vendor data; cited from earlier work
[11] = cited from earlier work
[12] = Stability of orantinib in an autoclave; assay type: physicochemical
Text: Each vial was then split up into 2 vials. One vial of each set was autoclaved and all samples analyzed by HPLC.

[13] = Phase solubility screening of orantinib with gamma-cyclodextrin at pH 6; assay type: physicochemical; settings: 22.5 °C, thermodynamic from solid
Experimental: Phase solubility screening with gamma-cyclodextrin at pH 6. […] The suspensions formed were autoclaved for 15 minutes at 121° C.

[14] = cited from earlier work; for solubility in pure water: 25° C.
[15] = Solubility of axitinib free base with various acids and γ-cyclodextrin
[16] = γ-cyclodextrin eye drop formulations

T1 sequence (P35968 20-1356, species assumed): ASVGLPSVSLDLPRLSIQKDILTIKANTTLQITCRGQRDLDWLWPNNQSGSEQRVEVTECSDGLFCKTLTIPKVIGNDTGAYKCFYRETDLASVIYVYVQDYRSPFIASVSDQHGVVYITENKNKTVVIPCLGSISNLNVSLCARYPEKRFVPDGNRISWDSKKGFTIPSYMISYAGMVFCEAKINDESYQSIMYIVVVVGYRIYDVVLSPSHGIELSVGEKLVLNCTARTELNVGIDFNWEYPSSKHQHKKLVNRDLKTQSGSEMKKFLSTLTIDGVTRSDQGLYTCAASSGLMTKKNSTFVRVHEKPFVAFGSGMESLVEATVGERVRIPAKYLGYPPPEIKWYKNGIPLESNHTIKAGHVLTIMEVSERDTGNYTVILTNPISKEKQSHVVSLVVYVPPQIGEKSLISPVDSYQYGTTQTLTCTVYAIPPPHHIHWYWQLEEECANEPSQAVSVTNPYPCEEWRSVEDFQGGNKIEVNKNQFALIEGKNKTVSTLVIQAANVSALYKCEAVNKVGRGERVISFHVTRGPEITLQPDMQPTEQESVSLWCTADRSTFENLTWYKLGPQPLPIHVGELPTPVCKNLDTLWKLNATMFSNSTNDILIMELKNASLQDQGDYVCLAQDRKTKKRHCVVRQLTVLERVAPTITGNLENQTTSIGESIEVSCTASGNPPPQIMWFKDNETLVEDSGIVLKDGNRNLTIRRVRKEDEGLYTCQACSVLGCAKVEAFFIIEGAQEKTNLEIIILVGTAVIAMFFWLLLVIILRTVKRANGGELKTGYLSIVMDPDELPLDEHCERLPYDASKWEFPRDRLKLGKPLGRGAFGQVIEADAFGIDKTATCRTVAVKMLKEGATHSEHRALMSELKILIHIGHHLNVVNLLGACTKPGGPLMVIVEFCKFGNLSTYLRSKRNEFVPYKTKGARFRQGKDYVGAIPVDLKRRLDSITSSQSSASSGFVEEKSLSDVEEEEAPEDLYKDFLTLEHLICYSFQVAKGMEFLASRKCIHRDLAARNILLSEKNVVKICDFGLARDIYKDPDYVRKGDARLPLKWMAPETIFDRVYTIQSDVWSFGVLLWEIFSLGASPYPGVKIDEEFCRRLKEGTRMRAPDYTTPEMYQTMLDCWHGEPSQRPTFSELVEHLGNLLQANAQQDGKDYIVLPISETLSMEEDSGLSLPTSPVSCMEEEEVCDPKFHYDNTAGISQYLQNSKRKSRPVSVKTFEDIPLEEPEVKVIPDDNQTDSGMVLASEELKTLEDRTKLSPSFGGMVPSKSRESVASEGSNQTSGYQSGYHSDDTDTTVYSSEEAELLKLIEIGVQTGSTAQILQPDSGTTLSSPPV
Sequence of EGFR (P00533 25-1210, species assumed): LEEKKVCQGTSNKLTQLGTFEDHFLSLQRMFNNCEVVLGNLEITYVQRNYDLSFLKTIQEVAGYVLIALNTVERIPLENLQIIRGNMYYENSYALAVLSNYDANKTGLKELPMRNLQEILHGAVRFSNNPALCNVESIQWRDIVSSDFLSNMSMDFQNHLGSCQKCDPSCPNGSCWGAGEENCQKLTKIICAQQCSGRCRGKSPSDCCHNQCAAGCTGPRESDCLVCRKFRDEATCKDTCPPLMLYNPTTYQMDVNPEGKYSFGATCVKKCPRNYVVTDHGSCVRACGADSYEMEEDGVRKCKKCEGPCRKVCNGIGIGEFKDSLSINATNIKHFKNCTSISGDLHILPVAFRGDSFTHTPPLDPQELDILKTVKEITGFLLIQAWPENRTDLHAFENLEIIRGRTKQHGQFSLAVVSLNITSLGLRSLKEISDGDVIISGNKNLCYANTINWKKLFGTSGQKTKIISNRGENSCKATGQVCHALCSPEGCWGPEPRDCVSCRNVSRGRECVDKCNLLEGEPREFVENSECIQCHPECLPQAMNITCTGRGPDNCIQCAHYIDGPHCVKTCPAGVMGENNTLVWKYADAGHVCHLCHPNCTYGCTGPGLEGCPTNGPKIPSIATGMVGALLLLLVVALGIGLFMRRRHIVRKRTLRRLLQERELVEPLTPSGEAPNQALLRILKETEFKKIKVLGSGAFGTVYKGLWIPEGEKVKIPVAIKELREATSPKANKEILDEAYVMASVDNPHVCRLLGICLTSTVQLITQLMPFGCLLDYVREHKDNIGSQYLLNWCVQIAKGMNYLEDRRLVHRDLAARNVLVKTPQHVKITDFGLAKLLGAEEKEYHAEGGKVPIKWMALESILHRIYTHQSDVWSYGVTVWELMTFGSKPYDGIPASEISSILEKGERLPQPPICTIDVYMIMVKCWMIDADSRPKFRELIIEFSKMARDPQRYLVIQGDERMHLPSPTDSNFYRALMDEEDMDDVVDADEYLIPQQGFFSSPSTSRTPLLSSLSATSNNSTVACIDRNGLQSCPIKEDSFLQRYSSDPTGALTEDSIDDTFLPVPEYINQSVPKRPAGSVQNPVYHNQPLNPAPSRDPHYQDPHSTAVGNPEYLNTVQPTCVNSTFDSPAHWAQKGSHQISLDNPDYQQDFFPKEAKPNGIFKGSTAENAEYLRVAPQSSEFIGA
Sequence of VEGFR2 (C-terminal fragment, amino acids D807-V1356) (P35968 807-1356): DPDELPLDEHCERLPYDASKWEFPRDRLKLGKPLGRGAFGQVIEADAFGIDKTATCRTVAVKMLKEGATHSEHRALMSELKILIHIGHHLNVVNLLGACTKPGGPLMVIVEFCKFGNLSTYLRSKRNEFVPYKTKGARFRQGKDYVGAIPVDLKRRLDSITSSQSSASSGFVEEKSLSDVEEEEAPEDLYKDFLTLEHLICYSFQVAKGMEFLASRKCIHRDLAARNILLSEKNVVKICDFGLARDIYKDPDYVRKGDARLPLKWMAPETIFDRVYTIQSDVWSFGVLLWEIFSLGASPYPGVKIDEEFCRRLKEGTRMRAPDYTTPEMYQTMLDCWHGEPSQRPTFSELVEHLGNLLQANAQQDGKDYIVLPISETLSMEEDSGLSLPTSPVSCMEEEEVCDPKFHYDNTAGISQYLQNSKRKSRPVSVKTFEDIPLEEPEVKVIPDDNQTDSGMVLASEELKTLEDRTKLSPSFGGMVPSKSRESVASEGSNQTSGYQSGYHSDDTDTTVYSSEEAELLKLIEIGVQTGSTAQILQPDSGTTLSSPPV
T2 sequence (P00533 672-1210): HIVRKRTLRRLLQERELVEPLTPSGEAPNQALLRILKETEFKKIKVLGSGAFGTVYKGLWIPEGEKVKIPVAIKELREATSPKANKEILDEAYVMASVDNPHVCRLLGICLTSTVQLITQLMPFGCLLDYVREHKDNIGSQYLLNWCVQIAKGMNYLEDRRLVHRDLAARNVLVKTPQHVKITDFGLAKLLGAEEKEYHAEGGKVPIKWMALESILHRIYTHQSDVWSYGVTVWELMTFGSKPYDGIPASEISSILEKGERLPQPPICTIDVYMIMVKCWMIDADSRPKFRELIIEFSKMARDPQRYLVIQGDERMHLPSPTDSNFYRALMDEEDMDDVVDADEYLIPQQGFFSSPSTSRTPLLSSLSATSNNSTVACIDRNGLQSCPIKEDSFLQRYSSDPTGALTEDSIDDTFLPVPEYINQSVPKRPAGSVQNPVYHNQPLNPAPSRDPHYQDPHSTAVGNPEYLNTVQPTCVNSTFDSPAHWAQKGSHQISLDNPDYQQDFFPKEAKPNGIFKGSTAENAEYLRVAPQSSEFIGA

Compound: CNCc1cc(Oc2ccc3c(ccn3C(=O)Nc3cc(C(F)(F)F)n(C)n3)c2)ncn1 [Acrizanib]
- IC50 (EGFR): 1 µM
- fraction of drug dissolved, maximum [1]: about 7.5%

Compound: O=C(Nc1cc(Oc2cc(F)c(NC(=O)C3(C(=O)Nc4ccc(F)cc4)CC3)cc2F)ccn1)C1CC1 [Altiratinib]
- IC50 (EGFR): 3.3 µM

Compound: COc1cc2c(Oc3ccc4[nH]c(C)cc4c3F)ccnc2cc1OCC1(N)CC1 [Anlotinib]
- IC50 (EGFR): 2 µM
- EGFR/VEGFR2 ratio (VEGFR2 [2]): 10,000

Compound: CNC(=O)c1ccccc1Sc1ccc2c(/C=C/c3ccccn3)n[nH]c2c1 [Axitinib]
- VEGFR inhibition in the recombinant assays [3]: potent inhibitors for VEGFR
- CE (complexation efficacy) [4]: 0.0002

Compound: O=C(Nc1cccc(C(F)(F)F)c1)c1cccc2cc(Oc3cc(CO)ncn3)ccc12 [BFH772]
- IC50 (EGFR): 10 µM
- EGFR/VEGFR2 ratio (VEGFR2 [2]): 3333

Compound: COc1cc2nccc(Oc3ccc(NC(=O)C4(C(=O)Nc5ccc(F)cc5)CC4)cc3)c2cc1OC [Cabozantinib]
- EGFR inhibition in the recombinant assays [5]: do not inhibit EGFR
- VEGFR2 inhibition, Cornea (VEGFR2 [6]): 90.52%
- VEGFR2 inhibition, Retina (VEGFR2 [7]): 74.82%

Compound: COc1cc2c(Oc3ccc4[nH]c(C)cc4c3F)ncnc2cc1OCCCN1CCCC1 [Cediranib]
- CE (complexation efficacy) [4]: 0.0578
- diameter of dissolved drug/γ-cyclodextrin complex nanoparticles [8, 16]: below 200 nm
- diameter of solid drug/γ-cyclodextrin complex microparticles [8, 16]: less than 10 µm
- fraction of drug dissolved (free drug, complexes or complex nanoparticles) [8, 16]: about 13%
- fraction of drug in solid drug/γ-cyclodextrin complex microparticles ([8]; γ-cyclodextrin eye drop formulations, from concentration before and after filtration): About 87%

Compound: CC(O)C(=O)O.CC(O)C(=O)O.CN1CCN(c2ccc3nc(-c4c(N)c5c(F)cccc5[nH]c4=O)[nH]c3c2)CC1 [Dovitinib dilactate]
- increase of drug that could be dissolved and suspended ([8]; lactate salt with EDTA and surface active polymers, versus free base): ~10 fold
- S in water ([9]; pH 6.5): 0.3 ^b mg/mL

Compound: CNC(=O)c1c(C)oc2cc(Oc3ncnc4cc(OC)c(OC)cc34)ccc12 [Fruquintinib]
- IC50 (EGFR): 30 µM
- EGFR/VEGFR2 ratio (VEGFR2 [2]): 857

Compound: COc1cc2nccc(Oc3ccc(NC(=O)Nc4ccc(F)cc4F)c(F)c3)c2cc1OC [Ki8751]
- IC50 (EGFR): 10 µM
- IC50 (VEGFR2 [10]): 0.004 µM
- EGFR/VEGFR2 ratio (VEGFR2 [2]): 2500

Compound: O=C(O)CC(O)C(=O)O (centres unmarked) [Malic]
- pKa (first or only value) [11]: 3.51
- pKa (second value) [11]: 5.03

Compound: CC1(C)CNc2cc(NC(=O)c3cccnc3NCc3ccncc3)ccc21 [Motesanib]
- CE (complexation efficacy) [4]: 0.0052

Compound: COC(=O)c1ccc2c(c1)NC(=O)/C2=C(\Nc1ccc(N(C)C(=O)CN2CCN(C)CC2)cc1)c1ccccc1 [Nintedanib]
- VEGFR2 inhibition, Cornea (VEGFR2 [6]): 95.92%
- VEGFR2 potency ranking in cornea (VEGFR2 [6]): most potent VEGFR2 inhibitor
- VEGFR2 inhibition, Retina (VEGFR2 [7]): 94.33%
- VEGFR2 potency ranking in retina (VEGFR2 [7]): most potent VEGFR2 inhibitor

Compound: O=C(Nc1ccc(OC(F)(F)F)cc1)c1sccc1NCc1ccnc2ccccc12 [OSI-930]
- IC50 (EGFR): 10 µM
- EGFR/VEGFR2 ratio (VEGFR2 [2]): 1000

Compound: Cc1[nH]c(/C=C2\C(=O)Nc3ccccc32)c(C)c1CCC(=O)O [Orantinib]
- concentration before autoclave ([12]; sample 1-29, MQ water with NaOH, pH 7.4, filtered 0.45 micrometer): 60 µq/ml
- concentration after autoclave ([12]; sample 1-29, pH 7.4): 64 µg/mL
- concentration before autoclave ([12]; sample 2-29, MQ water with NaOH, pH 7.6, filtered 0.45 micrometer): 182 µq/ml
- concentration after autoclave ([12]; sample 2-29, pH 7.6): 176 µg/mL
- concentration before autoclave ([12]; sample 3-29, MQ water with NaOH, pH 7.8, filtered 0.45 micrometer): 321 µq/ml
- concentration after autoclave ([12]; sample 3-29, pH 7.8): 316 µg/mL
- solubility at 4 h ([13]; water with 0 % (w/v) γ-cyclodextrin, water, 0 % (w/v) γCD, pH 6.3): 4 µg/mL (≈ 12.9 µM)
- solubility at 4 h ([13]; water with 5 % (w/v) γ-cyclodextrin, aqueous with cosolvent or surfactant or cyclodextrin, 5 % (w/v) γCD, pH 6.1): 14 µg/mL (≈ 45.1 µM)
- solubility at 4 h ([13]; water with 10 % (w/v) γ-cyclodextrin, aqueous with cosolvent or surfactant or cyclodextrin, 10 % (w/v) γCD, pH 6.2): 17 µg/mL (≈ 54.8 µM)
- solubility at 4 h ([13]; water with 15 % (w/v) γ-cyclodextrin, aqueous with cosolvent or surfactant or cyclodextrin, 15 % (w/v) γCD, pH 6.0): 12 µg/mL (≈ 38.7 µM)

Compound: Cc1ccc(Nc2nccc(N(C)c3ccc4c(C)n(C)nc4c3)n2)cc1S(N)(=O)=O [Pazopanib]
- CE (complexation efficacy) [4]: 0.00002

Compound: CNC(=O)c1cc(Oc2ccc(NC(=O)Nc3ccc(Cl)c(C(F)(F)F)c3)c(F)c2)ccn1 [Regorafenib]
- IC50 (EGFR): 1 µM
- CE (complexation efficacy) [4]: 0.00002

Compound: COCCNCc1ccc(-c2cc3nccc(Oc4ccc(NC(=O)C5(C(=O)Nc6ccc(F)cc6)CC5)cc4F)c3s2)nc1 [Sitravatinib]
- IC50 (EGFR): 5 µM

Compound: Cc1cc(F)c(Nc2ncnc3cc(OCc4ccccc4)ccc23)cc1O [ZM 323881, 5-((7-Benzyloxyquinazolin-4-yl)amino)-4-fluoro-2-methylphenol]
- IC50 (EGFR): 50 µM
- EGFR/VEGFR2 ratio (VEGFR2 [2]): 25,000

Compound: OC[C@H]1O[C@@H]2O[C@H]3[C@H](O)[C@@H](O)[C@@H](O[C@H]4[C@H](O)[C@@H](O)[C@@H](O[C@H]5[C@H](O)[C@@H](O)[C@@H](O[C@H]6[C@H](O)[C@@H](O)[C@@H](O[C@H]7[C@H](O)[C@@H](O)[C@@H](O[C@H]1[C@H](O)[C@H]2O)O[C@@H]7CO)O[C@@H]6CO)O[C@@H]5CO)O[C@@H]4CO)O[C@@H]3CO [α-cyclodextrin]
- solubility in pure water [14]: 129500 ± 700 µg/mL (≈ 133000 µM)

Compound: OC[C@H]1O[C@@H]2O[C@H]3[C@H](O)[C@@H](O)[C@@H](O[C@H]4[C@H](O)[C@@H](O)[C@@H](O[C@H]5[C@H](O)[C@@H](O)[C@@H](O[C@H]6[C@H](O)[C@@H](O)[C@@H](O[C@H]7[C@H](O)[C@@H](O)[C@@H](O[C@H]8[C@H](O)[C@@H](O)[C@@H](O[C@H]9[C@H](O)[C@@H](O)[C@@H](O[C@H]1[C@H](O)[C@H]2O)O[C@@H]9CO)O[C@@H]8CO)O[C@@H]7CO)O[C@@H]6CO)O[C@@H]5CO)O[C@@H]4CO)O[C@@H]3CO [γ-cyclodextrin]
- solubility in pure water [14]: 249200 ± 200 µg/mL (≈ 192000 µM)
- solubility in aqueous 3% (w/v) γ-cyclodextrin suspension saturated with hydrocortisone [14]: 13000 µg/mL
- solubility in pure water at room temperature [14]: about 250 mg/ml
- γCD in solution ([15]; 10 mg/ml Axi + 50 mg/ml γCD + Acetic acid (1:1 molar), pH 3.5): 24 mg/mL
- γCD in solution ([15]; 10 mg/ml Axi + 50 mg/ml γCD + Ascorbic acid (1:1 molar), pH 3.1): 27 mg/mL
- γCD in solution ([15]; 10 mg/ml Axi + 50 mg/ml γCD + Hydrochloric acid (1:1 molar), pH 3.2): 21 mg/mL
- γCD in solution ([15]; 10 mg/ml Axi + 50 mg/ml γCD + Lactic acid (1:1 molar), pH 2.8): 24 mg/mL
- γCD in solution ([15]; 10 mg/ml Axi + 50 mg/ml γCD + Maleic acid (1:1 molar), pH 2.3): 25 mg/mL
- γCD in solution ([15]; 10 mg/ml Axi + 50 mg/ml γCD + Malic acid (1:1 molar), pH 3.0): 24 mg/mL
- γCD in solution ([15]; 10 mg/ml Axi + 50 mg/ml γCD + Tartaric acid (1:1 molar), pH 2.7): 22 mg/mL
- γCD in solution ([15]; 10 mg/ml Axi + 50 mg/ml γCD, no acid, pH 9.1): 22 mg/mL

Compound: Cediranib maleate
- solubility compared with the free base [9]: significant greater solubility than the free base
